Entries after “also recorded” stand apart in the source; their conditions may differ.
How the values were obtained:
Format in all cases: cell-based, human
[1] = tested on: H0-1 cells; assay: Northern blotting analysis of steady-state mRNA levels; settings: FIG. 1 concentrations
Description: Steady-state levels of specific mRNAs were determined by Northern blotting analysis of total RNA probed with appropriate ^32P-labeled gene probes as described previously (14-16). RNAs were analyzed from cells treated with inducer for 24 hours, treated for 24 hours with inducer followed by growth for 72 hours in the absence of inducer, or treated continuously for 96 hours with the inducer. The concentration of inducing compounds used were the same as those used for growth studies. The effect of conditioned medium on gene expression changes was determined by treating H0-1 cells for 24 hours with a 1:2 dilution of conditioned medium (equal volumes of conditioned medium and DMEM supplemented with 10% fetal bovine serum (DMEM-10) or for 96 hours with a 1:4 dilution of conditioned medium (1 vol. of conditioned medium to 3 vol. of DMEM-10). The probes used in the present study were specific for β-actin (17), γ-actin (17), c-jun (18), c-myc (19), fibronectin (20), gro/MGSA (21), HLA Class I antigen (22), HLA Class II antigen (HLA-DRβ) (22), α5 integrin (23), β1 integrin (24), ISG-15 (25), ISG-54 (25), jun-B (26), and tenascin (27). Northern blots were also probed with a ^32P-labeled GAPDH gene (15) to verify similar mRNA expression under the various experimental conditions. Following hybridization, the filters were washed and exposed for autoradiography.

[2] = tested on: mda-4; assay: mda-4 expression (Northern blotting); settings: H0-1
Description: (§1) The mass excision of the library was performed using ExAssist helper phage as described above. The SOLR strain of Escherichia coli and cDNA phagemids were mixed at 37° C. for 15 min and plated onto LB plates containing ampicillin and IPTG/X-gal. White colonies were chosen at random, isolated and grown in LB medium. Plasmid minireps and restriction enzyme digestions were performed to confirm the presence of inserts. The inserts were isolated and used as robes for Northern blotting analysis (5,25). […] Radiolabeled probes were generated by random oligonucleotide priming (25). Prehybridization, hybridization, posthybridization washes, and autoradiography were performed as described (5,18,25).

[3] = tested on: mda-6; assay: mda-6 expression (Northern blotting)
Description: as §1
Total cytoplasmic RNA was isolated and Northern blotting hybridization was performed as described (Reddy et al., 1991; Su et al., 1991; Jiang et al., 1992). Ten μg of RNA was denatured with glyoxal/DMSO, electrophoresed on 1.0% agarose gels, transferred to nylon membranes and hybridized to a ^32P-labeled p53 probe (Baker et al., 1990). The nylon membrane was stripped and hybridized to a ^32P-labeled mda-6 probe (Jiang and Fisher, 1993) and then after a second stripping the membrane was hybridized to a ^32P-labeled rat GAPDH probe (Fort et al., 1985), as described previously (Reddy et al., 1991; Su et al., 1991; Jiang et al., 1992). Following hybridization, the filters were washed and exposed for autoradiography (Reddy et al., 1991; Su et al., 1991; Jiang et al., 1992). mda-6 and GAPDH gene expression were also determined by reverse transcription-polymerase chain reaction (RT-PCR) as described (Adollahi et al., 1991; Lin et al., 1994; Jiang et al., 1994b). Total cytoplasmic RNA was treated with 0.5 units DNase (Boehringer-Mannheim Biochemicals)/μg RNA in 15% glycerol, 10 mM Tris, pH 7.5, 2.5 mM MgCl2, 0.1 mM EDTA, 80 mM KCl, 1 mM CaCl2 and 1 unit/ml RNasin (Promega) at 30° C. for 10 min. RNA was extracted with phenol-chloroform, precipitated with sodium acetate/ethanol and RNA pellets were resuspended in diethylpyrocarbonate-treated H2O. One μg of total RNA was reverse transcribed with 200 units of murine leukemia virus reverse transcriptase (Bethesda Research Laboratories) in 20 μl containing 1 mM deoxyribonucleotide triphosphates, 4 mM MgCl2, 10 mM Tris, pH 8.3, 50 mM KCl, 0.001% gelatin and 0.2 μg oligo-dT primer. Samples were adjusted to 100 μl with buffer containing 0.2 mM deoxyribonucleotide triphosphates, 2 mM MgCl2, 10 mM Tris, pH 8.3, 50 mM KCl and 0.001% gelatin. Fifty pmol of each primer, 1.5 units Taq DNA polymerase (Perkin-Elmer Cetus) were added and samples were covered with mineral oil, heated at 95° C. for 5 min and subjected to 25 cycles of PCR in a Perkin-Elmer Thermal Cycler using 1 min denaturation at 94° C., 2 min annealing at 55° C. and 3 min polymerization at 72° C. After extraction with chloroform, 20 μl of products were electrophoresed, blotted onto nylon filters and hybridized with an mda-6 or GAPDH specific probe. The mda-6 primers were 5′ to 3′ […] (SEQ ID NO:26) and […] (SEQ ID NO:27)(corresponding to nt 1527 to 1546) (GenBank accession number U09579); and the GAPDH primers were 5′ to 3′ […] (SEQ ID NO:28)and […] (SEQ ID NO:29)(corresponding to nt 1070 to 1053) (Tokunaga et al., 1987).

[4] = tested on: mda-7; assay: mda-7 expression (Northern blotting, RT-PCR); settings: for mda-7 expression: H0-1
Description: as §1

[5] = 96 hours, doses of FIG. 15 legend
[6] = H0-1, 96 hours, doses of FIG. 15 legend
[7] = 24 hours, doses of FIG. 19, phenyl butyrate 24 hours, 4 days or 7 days
[8] = terminally differentiated HL-60 cells, TPA for 2 days, RA for 4 days

In the case of C=C(C)[C@@]12O[C@@]3(c4ccccc4)O[C@@H]1[C@@H]1[C@@H]4O[C@]4(CO)[C@@H](O)[C@]4(O)C(=O)C(C)=C[C@H]4[C@@]1(O3)[C@H](C)[C@H]2OC(=O)/C=C/C=C/c1ccccc1 [MEZ, mezerein], the “HLA Class I antigen gene expression” value ([1]; 96 h) is reported as “did not significantly alter”, the fibronectin expression ([1]; 96 h) is reported as “less potent” and the “induction of gro/MGSA gene expression” value ([1]; 96 h) is reported as “did not”. For the same compound, the tenascin expression ([1]; 96 h) was “decreased tenascin expression”, the “c-jun and jun-B expression” value ([1]; 96 hours) was “increase” and the c-myc expression ([1]; 96 hours) was “downregulated”. For the same compound, the mda-4 expression [2, 5] was “No or only a small change in expression”, the mda-6 expression ([3]; H0-1, 24 hours, doses of FIG. 19, phenyl butyrate 24 hours, 4 or 7 days) was “increased expression; also recorded: smaller induction of mda-6 expression” and the mda-6 expression [3, 6] was “no significant or reduced alteration in expression”. For the same compound, the mda-7 expression [4, 7] was “increased mda-7 expression” and the mda-7 expression [4, 5] was “Increased expression”.

In the case of CC1=C(/C=C/C(C)=C/C=C/C(C)=C/C(=O)O)C(C)(C)CCC1 [RA, trans-retinoic acid], the “HLA Class I antigen gene expression” value ([1]; 96 h) is reported as “did not significantly alter”, the fibronectin expression ([1]; 96 h) is reported as “least effective” and the “induction of gro/MGSA gene expression” value ([1]; 96 h) is reported as “did not”. The tenascin expression ([1]; 96 h) was “decreased tenascin expression”, the α5 integrin expression ([1]; 96 h) was “reduced” and the “β-actin and γ-actin expression” value ([1]; 96 h) was “did not significantly alter”. For the same compound, the mda-4 expression [2, 7] was “No or only a small change in expression”, the mda-6 expression [3, 6] was “no significant or reduced alteration in expression” and the mda-7 expression [4, 5] was “does not induce growth changes or induce mda-7 expression”. The “mda-7 expression (RT-PCR)” value ([4]; LAN human neuroblastoma cells, 5 days) was “not induced” and the “mda-7 expression (RT-PCR)” value [4, 8] was “persists”.

CCCCCCCCCCCCCC(=O)O[C@@H]1[C@@H](C)[C@@]2(O)[C@@H](C=C(CO)C[C@]3(O)C(=O)C(C)=C[C@@H]23)[C@@H]2C(C)(C)[C@]12OC(C)=O [TPA, 12-O-tetradecanoyl-phorbol-13-acetate] was tested, and the mda-6 expression ([3]; human histiocytic lymphoma, U-937, cells, differentiation and growth arrest) was “induced”, the “mda-7 expression (RT-PCR)” value ([4]; HL-60 and U-937 cells) was “induced” and the “mda-7 expression (RT-PCR)” value [4, 8] was “persists”.

Source: patent US7507792B2, “MDA-7 proteins and methods of use thereof” (The Trustees of Columbia University In The City of New York, priority 1993, dated 2009)
